Data from the NIST ThermoML archive (doi:10.1016/j.jct.2012.04.020).
“And” between values parts separate entries of the source, which are not always exact repeats. Equal values may be shown once.

Assay: mn = molality of the nth substance listed, in mol/kg
Settings: 101 kPa, Liquid; for speed of sound: Sing-around technique in a fixed-path interferometer; for mass density: Vibrating tube method

NCC(=O)O [2-aminoacetic acid] + O
Settings	mass density, m1 = 0.04978 [kg/m3]	mass density, m1 = 0.1472 [kg/m3]	mass density, m1 = 0.2507 [kg/m3]	mass density, m1 = 0.3018 [kg/m3]	mass density, m1 = 0.3521 [kg/m3]	speed of sound, m1 = 0.04978 [m/s]	speed of sound, m1 = 0.1472 [m/s]	speed of sound, m1 = 0.2507 [m/s]	speed of sound, m1 = 0.3018 [m/s]	speed of sound, m1 = 0.3521 [m/s]
288.15 K	1000.74	1003.87	1007.09	1008.62	1010.01	1484.9	1490.1	1495.3	1497.7	1500
298.15 K	998.674	1001.73	1004.79	1006.26	1007.54	1499	1503.6	1508.3	1510.3	1512.3
308.15 K	995.639	998.704	1001.69	1003	1004.15	1521.8	1526	1530.5	1532.4	1534.3
318.15 K	991.801	994.854	997.838	999.157	1000.43	1538.6	1542.8	1547	1549.3	1550.9

C[C@H](N)C(=O)O [(S)-2-aminopropanoic acid] + O
mass density [kg/m3]
Settings	m1 = 0.05014	m1 = 0.15	m1 = 0.2505	m1 = 0.303	m1 = 0.3456
288.15 K	1000.65	1003.65	1006.52	1007.97	1009.14
298.15 K	998.59	1001.56	1004.42	1005.85	1006.98
308.15 K	995.554	998.483	1001.31	1002.74	1003.86
318.15 K	991.648	994.399	997.067	998.365	999.359

O=P([O-])([O-])O.[K+].[K+] [dipotassium hydrogen phosphate] + O
Settings	mass density, 288.15 K	mass density, 298.15 K	mass density, 308.15 K	mass density, 318.15 K	speed of sound, 288.15 K	speed of sound, 298.15 K	speed of sound, 308.15 K	speed of sound, 318.15 K
m1 = 0.2	1031.93 kg/m3 and 1029.08 kg/m3	1029.32 kg/m3 and 1026.51 kg/m3	1025.9 kg/m3 and 1023.13 kg/m3	1021.79 kg/m3 and 1018.99 kg/m3	1502.7 m/s and 1500 m/s	1530.6 m/s and 1528.2 m/s	1551.8 m/s and 1549.3 m/s	1566.8 m/s and 1564.2 m/s
m1 = 0.4	1057.5 kg/m3 and 1061.39 kg/m3	1054.52 kg/m3 and 1058.35 kg/m3	1054.54 kg/m3 and 1050.82 kg/m3	1050.25 kg/m3 and 1046.5 kg/m3	1531 m/s and 1535 m/s	1557 m/s and 1560.8 m/s	1580.1 m/s and 1576.5 m/s	1593.7 m/s and 1590.2 m/s
m1 = 0.6	1084.12 kg/m3 and 1093.21 kg/m3	1080.78 kg/m3 and 1089.76 kg/m3	1076.82 kg/m3 and 1085.71 kg/m3	1072.29 kg/m3 and 1081.11 kg/m3	1560.3 m/s and 1570.8 m/s	1584.4 m/s and 1594.5 m/s	1602.3 m/s and 1611.8 m/s	1614.7 m/s and 1623.6 m/s
m1 = 0.8	1113.94 kg/m3 and 1116.48 kg/m3	1110.27 kg/m3 and 1112.77 kg/m3	1106.04 kg/m3 and 1108.53 kg/m3	1101.38 kg/m3 and 1103.81 kg/m3	1594.2 m/s and 1597.3 m/s	1616.3 m/s and 1619.1 m/s	1632.4 m/s and 1635 m/s	1643.2 m/s and 1645.5 m/s
